In brackets after ≈: the same amount, converted by molar mass.
Assays:
[1] = Cytotoxicity against human HepG2(2.2.15) cells after 3 days; type: functional, cell-based; details: HepG2 2.2.15, 72 h
HepG2 = experiment: Cytotoxicity against human HepG2 cells after 3 days; type: functional, cell-based; details: HepG2, 72 h

SMILES | IC50 [1] | IC50 (HepG2)
CCCCCCCCCCCC[C@@H](O)[C@H]1CC[C@@H]([C@@H](O)CCCCCCC(O)CCCCC[C@@H](O)CC2=C[C@H](C)OC2=O)O1 (stereo partly drawn) | 0.0162 µg/mL (≈ 0.0259 µM) | 0.298 µg/mL (≈ 0.477 µM)
CCC[C@H](O)[C@@H](O)CCCCCCCC[C@@H](O)[C@H]1CC[C@H](CCCCCCCCCC[C@@H](O)CC2=C[C@H](C)OC2=O)O1 [ANNOCATALIN] | 0.00348 µg/mL (≈ 0.00583 µM) | 5.7 µg/mL (≈ 9.55 µM)
CCCCCCCCCCCC[C@@H](O)[C@H]1CC[C@@H]([C@@H](O)CCCCC(=O)CCCCCCCC2=C[C@H](C)OC2=O)O1 [COROSSOLONE] | 0.0476 µg/mL (≈ 0.0822 µM) | 0.165 µg/mL (≈ 0.285 µM)
COc1cccc2c1C(=O)c1c(O)c3c(c(O)c1C2=O)C[C@@](O)(C(=O)CO)C[C@@H]3O[C@H]1C[C@H](N)[C@H](O)[C@H](C)O1 [DOXORUBICIN] | 0.45 µg/mL (≈ 0.828 µM) | 0.241 µg/mL (≈ 0.443 µM)
CCCCCC(O)C(O)CCCCCC[C@@H](O)[C@H]1CC[C@H](CCCCCCCCCC[C@@H](O)CC2=C[C@H](C)OC2=O)O1 (stereo partly drawn) [MURICIN A] | 0.00513 µg/mL (≈ 0.00859 µM) | 5.04 µg/mL (≈ 8.44 µM)
CCCCCC(O)C(O)CCCCCC[C@H](O)[C@@H]1CC[C@H](CCCCCCCCCC[C@H](O)CC2=C[C@H](C)OC2=O)O1 (stereo partly drawn) [MURICIN B] | 0.00429 µg/mL (≈ 0.00719 µM) | 1.78 µg/mL (≈ 2.98 µM)
CCCCCCCC(O)C(O)CC[C@H](O)[C@@H]1CC[C@H](CCCCCCCCCCCC[C@@H](O)CC2=C[C@H](C)OC2=O)O1 (stereo partly drawn) [MURICIN C] | 0.00387 µg/mL (≈ 0.00648 µM) | 0.499 µg/mL (≈ 0.836 µM)
CCCCCCC[C@H](O)[C@@H](O)CCCC[C@@H](O)[C@H]1CC[C@H](CCCCCCCCCCCCC2=C[C@H](C)OC2=O)O1 [MURICIN H] | 0.0118 µg/mL (≈ 0.0203 µM) | 0.0951 µg/mL (≈ 0.164 µM)
CCCCC/C=C\CC[C@H](O)[C@@H](O)CCCC[C@@H](O)[C@H]1CC[C@H](CCCCCCCCCCCCC2=C[C@H](C)OC2=O)O1 [MURICIN I] | 0.222 µg/mL (≈ 0.366 µM) | 0.0509 µg/mL (≈ 0.0839 µM)

Reference: ChEMBL document CHEMBL1148113, “New cytotoxic monotetrahydrofuran annonaceous acetogenins from Annona muricata” (J Nat Prod, 2002)
